We go through 22 compounds from patent US10730870B2, “Compounds and methods for the enhanced degradation of targeted proteins” (Arvinas, Inc., priority 2015, dated 2020).

One assay deals with Androgen Receptor. The experiment in a line: Androgen receptor ELISA assay (AR degradation) in LNCaP and/or VCaP cells. It counts as cell-based. The settings on record: AR PROTACs. On the procedure: Compounds have been evaluated in this assay in LNCaP and/or VCaP cells utilizing similar protocols. The protocols used with VCaP cells are described below. The androgen receptor ELISA assay was performed using PathScan AR ELISA (Cell Signaling Catalog #12850) according to the following assay steps:
VCaP cells are seeded at 30,000 cells/well at a volume of 200 μL/well in VCaP assay medium [Phenol red free RPMI (Gibco Cat #11835-030); 5% Charcoal Stripped (Dextran treated) FBS (Omega Scientific, Cat # FB-04); Pen/Strep Life Technologies (Gibco Cat #: 10378-016); 0.1 nM R1881 (Sigma, Cat # R0908) is added upon the start of the assay, not during initial plating of the cells) in Corning 3904 plates. The cells are grown for a minimum of 3 days.
(2)(i) Make 10× stock plate in media; (ii) transfer 2.5 μL of the 1000× stock to a new 10× stock plate (use 12 channel pipet, start at A (DMSO control) work thru H. When 247.5 μL of media is added to this plate, it will serve as a 10× stock; (iii) make media+1 nM R1881 for making 10× stock plate; (iv) add 247.5 μL of media with 1 nM R1881 to each well of the 10× stock plate, mix.
Then 22 μL of 10× stock is added to cells and incubated for 24h. 1× Cell Signaling Cell lysis buffer is made (Catalogue #9803; comes with the kit)—prepare for 50 μL/well. Keep on ice. Media is aspirated, and 50 μL 1× cell lysis buffer/well is added. The cells are placed on ice for 10 minutes. The solution is mixed and transferred to PCR plate, and centrifuged at 4 C for 10 minutes at 4000 rpm.
5 μL is transferred to fresh plate (use immediately or freeze −80 C); 115 μL ELISA Dilutant is added (0.15 ug/ml-0.075 ug/ml; comes with the PathScan ELISA).
Add 100 μL/well AR Elisa; cover and shake, 37 C for 2 hrs; dump, tap, wash 4×200 μL ELISA wash buffer; add 100 μL/well mouse AR detection Ab; cover and shake, 37 C for 1 hr; dump, tap, wash 4×200 μL ELISA wash buffer; add 100 μL/well anti-mouse—HRP conjugated Ab (comes with the kit); cover and shake, 37 C for 30 min; allow TMB reagent to come to RT; dump, tap, wash 4×200 μL Elisa wash buffer; tap; add 100 μL TMB, shake 5 min—while watching color. Add the stop reagent when light blue color develops. Add 100 μL Stop solution; shake and read at 450 nm.
The results presented in Table 3 were generated using the androgen receptor ELISA Assay described above, where compound potencies were characterized in highest percentage of Androgen Receptor degradation (Dmax) observed.
In general terms: ELISA stands for enzyme-linked immunosorbent assay.

The next assay addresses VHL (Homo sapiens (Human), UniProt P40337). The experiment in a line: VHL fluorescence polarization (FP) competition assay. Type of assay: binding. (In general: Polarisation of emitted light reports the rotation of a fluorescent probe.)

With `Cc1ncsc1-c1ccc([C@H](C)NC(=O)[C@@H]2C[C@@H](O)CN2C(=O)[C@H](C(C)C)n2cc(-c3ccnc(N4CCC(Nc5ccc(C(=O)N[C@H]6C(C)(C)[C@H](Oc7ccc(C#N)c(Cl)c7)C6(C)C)cc5)C4)c3)cn2)cc1` (some centres unmarked), in the assay with Androgen Receptor, the “Dmax (highest percentage of Androgen Receptor degradation)” value is “++ (26%≤Dmax≤50%)”.
`Cc1ncsc1-c1ccc(CNC(=O)[C@@H]2C[C@@H](O)CN2C(=O)C(C(C)C)n2cc(OC3CCN(c4ccc(-c5ccc(N6C(=S)N(c7ccc(C#N)c(C(F)(F)F)c7)C(=O)C6(C)C)cc5)cn4)CC3)cn2)cc1` (some centres unmarked): the “Dmax (highest percentage of Androgen Receptor degradation)” value with Androgen Receptor is “++ (26%≤Dmax≤50%)”.
`Cc1ncsc1-c1ccc([C@H](C)NC(=O)[C@@H]2C[C@@H](O)CN2C(=O)[C@H](C(C)C)n2cc(OCCCOCCC(O)CCOc3ccc(N4C(=S)N(c5ccc(C#N)c(C(F)(F)F)c5)C(=O)C4(C)C)cc3)cn2)cc1` (some centres unmarked): the “Dmax (highest percentage of Androgen Receptor degradation)” value in the assay on Androgen Receptor is recorded as “+++ (51%≤Dmax≤70%)”.
On to `Cc1ncsc1-c1ccc([C@H](C)NC(=O)[C@@H]2C[C@@H](O)CN2C(=O)[C@H](C(C)C)n2cc(-c3ccnc(OC4CN(c5ccc(C(=O)N[C@H]6C(C)(C)[C@H](Oc7ccc(C#N)c(Cl)c7)C6(C)C)cn5)C4)c3)cn2)cc1`, for which, in the assay with Androgen Receptor, the “Dmax (highest percentage of Androgen Receptor degradation)” value is reported as “+++ (51%≤Dmax≤70%)”.
With `Cc1ncsc1-c1ccc([C@H](C)NC(=O)[C@@H]2C[C@@H](O)CN2C(=O)[C@H](C(C)C)n2cc(-c3ccnc(OC4CN(c5ncc(C(=O)NC6C(C)(C)C(Oc7ccc(C#N)c(Cl)c7)C6(C)C)cn5)C4)c3)cn2)cc1` (some centres unmarked), the “Dmax (highest percentage of Androgen Receptor degradation)” value with Androgen Receptor was “+++ (51%≤Dmax≤70%)”.
The term IC50 denotes the point on the concentration scale where inhibition reaches its midpoint. High values mean a need for much substance, low ones inhibition by little substance. In the case of `Cc1ncsc1-c1ccc(CNC(=O)[C@@H]2C[C@@H](O)CN2C(=O)[C@H](C(C)C)N2Cc3c(C#N)cccc3C2=O)cc1` [Example 35, (2S,4R)-1-((S)-2-(4-cyano-1-oxoisoindolin-2-yl)-3-methylbutanoyl)-4-hydroxy-N-(4-(4-methylthiazol-5-yl)benzyl)pyrrolidine-2-carboxamide], the IC50 on VHL (0.25% in DMSO) stood at 2050 nM; at VHL (1% in DMSO), 509 nM; on VHL (10% in DMSO), 1300 nM.
Take `CC(=O)NC(C(=O)N1C[C@H](O)C[C@H]1C(=O)NCc1ccc(-c2scnc2C)cc1)C(F)(F)F` (stereo partly drawn) [Example 90, (2S,4R)-1-(2-acetamido-3,3,3-trifluoropropanoyl)-4-hydroxy-N-(4-(4-methylthiazol-5-yl)benzyl)pyrrolidine-2-carboxamide]: the IC50 on VHL (1% in DMSO) is 45200 nM; at VHL (10% in DMSO) it was 47900 nM.
With `Cc1ncsc1-c1ccc(CNC(=O)[C@@H]2C[C@@H](O)CN2C(=O)c2ccccc2)cc1` [Example 64, (2S,4R)-1-benzoyl-4-hydroxy-N-(4-(4-methylthiazol-5-yl)benzyl)pyrrolidine-2-carboxamide], the figures for the IC50 at VHL (1% in DMSO) and at VHL (10% in DMSO) were 16800 nM and 30500 nM, respectively.
Regarding `CC(C)[C@@H](C(=O)N1C[C@H](O)C[C@H]1C(=O)NCc1ccc(-c2scnc2C2CC2)cc1)N1Cc2ccccc2C1=O` [Example 2, (2S,4R)—N-(4-(4-cyclopropylthiazol-5-yl)benzyl)-4-hydroxy-1-((S)-3-methyl-2-(1-oxoisoindolin-2-yl)butanoyl)pyrrolidine-2-carboxamide], the values for the IC50 at VHL (0.25% in DMSO), at VHL (1% in DMSO) and at VHL (10% in DMSO) were 2860 nM, 732 nM and 533 nM, respectively.
For `COc1ccc(C(=O)N2C[C@H](O)C[C@H]2C(=O)NCc2ccc(-c3scnc3C)cc2)c(C)c1` [Example 88, (2S,4R)-4-hydroxy-1-(4-methoxy-2-methylbenzoyl)-N-(4-(4-methylthiazol-5-yl)benzyl)pyrrolidine-2-carboxamide], the results for the 50% inhibitory concentration (IC50) on VHL (1% in DMSO) and on VHL (10% in DMSO) were 20400 nM and 39200 nM, respectively.
Consider `Cc1ncsc1-c1ccc(CN/C(=N/C#N)[C@@H]2C[C@@H](O)CN2C(=O)[C@H](C(C)C)N2Cc3ccccc3C2=O)cc1` [Example 112, (2S,4R,E)-N′-cyano-4-hydroxy-1-((S)-3-methyl-2-(1-oxoisoindolin-2-yl)butanoyl)-N-(4-(4-methylthiazol-5-yl)benzyl)pyrrolidine-2-carboximidamide], for which the IC50 at VHL (1% in DMSO) is greater than 100000 nM.
`Cc1ncsc1-c1ccc(CNC(=O)[C@@H]2C[C@@H](O)CN2C(=O)[C@@H](NC(=O)CCC(C)C)C(C)(C)C)cc1` [Example 28, (2S,4R)-1-((S)-3,3-dimethyl-2-(4-methylpentanamido)butanoyl)-4-hydroxy-N-(4-(4-methylthiazol-5-yl)benzyl)pyrrolidine-2-carboxamide]: the IC50 was 4470 nM at VHL (0.25% in DMSO), 2210 nM at VHL (1% in DMSO) and 3600 nM on VHL (10% in DMSO).
Turning to `Cc1ncsc1-c1ccc(CNC(=O)[C@@H]2C[C@@H](O)CN2C(=O)[C@H](C(C)C)N2Cc3cccc(C#N)c3C2=O)cc1` [Example 47, (2S,4R)-1-((S)-2-(7-cyano-1-oxoisoindolin-2-yl)-3-methylbutanoyl)-4-hydroxy-N-(4-(4-methylthiazol-5-yl)benzyl)pyrrolidine-2-carboxamide], the IC50 at VHL (1% in DMSO) is 178 nM; at VHL (10% in DMSO), 339 nM.
The compound `CCC(C(=O)N1C[C@H](O)C[C@H]1C(=O)NCc1ccc(-c2scnc2C)cc1)c1cc(C)no1` (stereo partly drawn) [Example 143, (2S,4R)-4-hydroxy-1-(2-(3-methylisoxazol-5-yl)butanoyl)-N-(4-(4-methylthiazol-5-yl)benzyl)pyrrolidine-2-carboxamide] gave an IC50 on VHL (1% in DMSO) of 964 nM.
Take `Cc1ncsc1-c1ccc(CNC(=O)C2(C)C[C@@H](O)CN2C(=O)[C@H](C(C)C)N2Cc3ccccc3C2=O)cc1` (some centres unmarked) [Example 132]: at VHL (1% in DMSO), the IC50 came out at 1690 nM.
The compound `CCC[C@H](NC(C)=O)C(=O)N1C[C@H](O)C[C@H]1C(=O)NCc1ccc(-c2scnc2C)cc1` [Example 148, (2S,4R)-1-((S)-2-acetamidopentanoyl)-4-hydroxy-N-(4-(4-methylthiazol-5-yl)benzyl)pyrrolidine-2-carboxamide] displayed an IC50 on VHL (1% in DMSO) of 6200 nM.
Take `Cc1ncsc1-c1ccc(CNC(=O)[C@@H]2C[C@@H](O)CN2C(=O)[C@@H](NCCC(C)C)C2CCCC2)cc1` [Example 32, (2S,4R)-1-((S)-2-cyclopentyl-2-(isopentylamino)acetyl)-4-hydroxy-N-(4-(4-methylthiazol-5-yl)benzyl)pyrrolidine-2-carboxamide]: the figures for the IC50 on VHL (0.25% in DMSO), on VHL (1% in DMSO) and at VHL (10% in DMSO) were 2220 nM, 1150 nM and 3360 nM, respectively.
As for `Cc1ncsc1-c1ccc(CNC[C@@H]2C[C@@H](O)CN2C(=O)[C@H](C(C)C)N2Cc3ccccc3C2=O)cc1` [Example 121, 2-((S)-1-((2S,4R)-4-hydroxy-2-((4-(4-methylthiazol-5-yl)benzylamino)methyl)pyrrolidin-1-yl)-3-methyl-1-oxobutan-2-yl)isoindolin-1-one], the IC50 at VHL (1% in DMSO) is greater than 100000 nM.
Turning to `Cc1ncsc1-c1ccc(CNC(=O)[C@@H]2C[C@@H](O)CN2C(=O)[C@@H](NC(=O)[C@H](C)N)C(C)(C)C)cc1` [Example 123, (2S,4R)-1-((S)-2-((S)-2-aminopropanamido)-3,3-dimethylbutanoyl)-4-hydroxy-N-(4-(4-methylthiazol-5-yl)benzyl)pyrrolidine-2-carboxamide], at VHL (1% in DMSO), the IC50 was found to be 4230 nM.
Still for that read-out and setting: for `Cc1ncsc1-c1ccc(CNC(=O)[C@@H]2C[C@@H](O)CN2C(=O)[C@@H](NC(=O)CNC(=O)OC(C)(C)C)C(C)(C)C)cc1` [Example 124, tert-butyl 2-((S)-1-((2S,4R)-4-hydroxy-2-(4-(4-methylthiazol-5-yl)benzylcarbamoyl)pyrrolidin-1-yl)-3,3-dimethyl-1-oxobutan-2-ylamino)-2-oxoethylcarbamate] the value was 1110 nM; for `CC(=O)N[C@H](C(=S)N1C[C@H](O)C[C@H]1C(=O)NCc1ccc(-c2scnc2C)cc1)C(C)C` [Example 130, (2S,4R)-1-((S)-2-acetamido-3-methylbutanethioyl)-4-hydroxy-N-(4-(4-methylthiazol-5-yl)benzyl)pyrrolidine-2-carboxamide], 3890 nM.
`COCC#Cc1ccc2c(c1)CN([C@H](C(=O)N1C[C@H](O)C[C@H]1C(=O)NCc1ccc(-c3scnc3C)cc1)C(C)C)C2=O` [Example 53, (2S,4R)-4-hydroxy-1-((S)-2-(5-(3-methoxyprop-1-ynyl)-1-oxoisoindolin-2-yl)-3-methylbutanoyl)-N-(4-(4-methylthiazol-5-yl)benzyl)pyrrolidine-2-carboxamide]: the IC50 worked out at 474 nM on VHL (1% in DMSO) and 1030 nM on VHL (10% in DMSO).
